According to patent US20160113932A1, “TREATMENT OF CANCERS USING PI3 KINASE ISOFORM MODULATORS” (INFINITY PHARMACEUTICALS, INC., priority 2013, published 2016):
Several values for one entry are separate records, joined by “and”; a condition that tells them apart may be missing. Identical values can stand only once. Entries after “also recorded” stand apart in the source; their conditions may differ.

Experiments:
Loucy = assay: T-ALL growth inhibition; assay type: cell-based, human; settings: Homo sapiens; PTEN deficient Loucy cell line
Description: To further explore the individual contributions of the varying PI3K isoforms on T-ALL cell growth, Loucy ALL cells were treated with doxorubicin and various PI3K inhibitors as shown in FIG. 32 at various concentrations as denoted in the figure.

[1] = system: hemodynamic and electrocardiographic parameters; assay: Cardiovascular study in instrumented cynomolgus monkey; assay type: in vivo; settings: male cynomolgus monkeys
From the text: Four non-naive, male monkeys implanted with radiotelemetry transmitters were utilized during the conduct of this study.

U2932 = assay: DLBCL cellular growth inhibition, 72 hour CTG assay; assay type: cell-based; settings: Homo sapiens
[2] = Plasma protein binding in vitro, monkey; assay type: in vitro ADME; settings: all concentrations tested
[3] = Absolute bioavailability / pharmacokinetics in Sprague-Dawley rats; assay type: in vivo; settings: Rat, PO, 10 mg/kg, suspension
[4] = In vitro genetic toxicity studies
[5] = system: CD63 expression on the surface of activated CCR3+ basophils; assay: Basophil activation, ex vivo anti-FcεR1 activation assay, healthy subjects; assay type: in vivo, human; settings: single dose administration
hERG channel current = hERG channel current (Homo sapiens, UniProt Q12809); assay: In vitro hERG assay; settings: hERG IC50 fit
Chain of hERG channel current (Q12809 whole entry): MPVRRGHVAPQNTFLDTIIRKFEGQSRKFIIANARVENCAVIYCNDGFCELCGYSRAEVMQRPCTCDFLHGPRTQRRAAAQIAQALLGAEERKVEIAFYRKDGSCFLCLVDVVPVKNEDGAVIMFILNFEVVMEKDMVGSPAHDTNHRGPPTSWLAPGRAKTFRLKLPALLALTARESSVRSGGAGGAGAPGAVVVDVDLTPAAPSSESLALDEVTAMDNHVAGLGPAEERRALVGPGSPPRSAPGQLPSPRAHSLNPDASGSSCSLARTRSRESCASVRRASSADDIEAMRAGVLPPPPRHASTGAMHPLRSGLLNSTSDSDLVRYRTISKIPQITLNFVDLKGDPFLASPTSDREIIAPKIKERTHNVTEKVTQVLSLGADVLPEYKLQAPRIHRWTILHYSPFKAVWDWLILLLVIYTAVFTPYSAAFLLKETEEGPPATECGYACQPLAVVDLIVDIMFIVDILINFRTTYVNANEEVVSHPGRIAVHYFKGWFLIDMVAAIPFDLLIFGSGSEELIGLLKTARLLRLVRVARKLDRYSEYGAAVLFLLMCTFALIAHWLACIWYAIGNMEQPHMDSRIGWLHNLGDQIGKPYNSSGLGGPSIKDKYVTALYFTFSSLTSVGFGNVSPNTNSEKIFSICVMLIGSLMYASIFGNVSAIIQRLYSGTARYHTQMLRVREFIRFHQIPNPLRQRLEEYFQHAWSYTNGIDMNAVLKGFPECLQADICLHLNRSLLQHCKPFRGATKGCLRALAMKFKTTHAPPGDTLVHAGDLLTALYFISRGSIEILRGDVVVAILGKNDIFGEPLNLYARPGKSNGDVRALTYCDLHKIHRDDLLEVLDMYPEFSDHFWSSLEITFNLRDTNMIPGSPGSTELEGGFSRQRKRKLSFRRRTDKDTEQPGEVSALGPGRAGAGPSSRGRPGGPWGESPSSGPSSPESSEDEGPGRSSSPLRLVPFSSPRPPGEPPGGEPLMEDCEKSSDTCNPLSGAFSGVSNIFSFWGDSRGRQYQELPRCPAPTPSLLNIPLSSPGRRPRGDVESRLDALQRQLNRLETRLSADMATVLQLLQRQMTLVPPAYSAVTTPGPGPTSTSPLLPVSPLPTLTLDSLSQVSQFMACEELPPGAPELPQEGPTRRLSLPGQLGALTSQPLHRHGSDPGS

[6] = Absolute bioavailability / pharmacokinetics in BALB/c mice; assay type: in vivo; settings: Mouse, PO, 10 mg/kg, suspension, calculated using AUC0-last
respiratory system = assay: Respiratory study in Sprague Dawley rat; assay type: in vivo; settings: male rat, single oral administration up to 350 mg/kg
[7] = Phase 1 study in hematologic malignancies: pharmacokinetics, steady state plasma concentrations; assay type: in vivo, human
Description: PK and PD markers were evaluated after the first dose (e.g., 8 mg BID) and at steady state. PD activity (PI3K inhibition) in whole blood was evaluated using a basophil activation assay which measured reduction in CD63 expression on the surface of basophils following ex vivo stimulation.

[8] = Phase 1 study in healthy subjects: pharmacokinetics (single dose, multiple dose, food effect, DDI); assay type: in vivo, human; settings: for AUC(0-24): mean (% CV)
[9] = Phase 1 study in healthy subjects: safety and tolerability; assay type: in vivo
Description: Serial ECGs were performed at multiple time points after dosing in all study groups.
In addition, a rapid response was observed, assessed as reduction in CD63^+ expression on CCR3^+ basophils in an ex vivo anti-FcεR1 activation assay (FIG. 1-3). […] CD63^+ expression returned to baseline as plasma drug concentrations declined. […] The most common non-procedural AEs occurring in ≧2 subjects were headache (8% vs. 25% PLB), myalgia (6% vs. 8% PLB), and nasopharyngitis (6% vs. 0% PLB). […] No clinical significant findings in safety lab studies of ECGs were observed.

HH = assay: CTCL cytotoxicity, 72 hours; assay type: cell-based; settings: HH cells, vs MJ or HuT78
Description: (§1) MJ and HuT78 cells were grown in IMDM 20% FBS, and HH cells were grown in RPMI 10% FBS.

MJ = assay: CTCL cytotoxicity, 72 hours; assay type: cell-based; settings: MJ cells
Description: as §1

HuT78 = assay: CTCL cytotoxicity, 72 hours; assay type: cell-based; settings: HuT78 cells
Description: as §1

[10] = multiple doses for 2 weeks (n=36)

## C[C@H](Nc1ncnc2[nH]cnc12)c1cc2cccc(Cl)c2c(=O)n1-c1ccccc1 [Compound 292]
Loucy
  IC50: 245 nM
[1]; single oral dose of 5, 30, and 150 mg/kg
  effects on hemodynamic or electrocardiographic parameters: No Compound 292-related effects
[1]; up to 150 mg/kg
  waveform abnormalities or arrhythmias: no waveform abnormalities or arrhythmias
U2932
  IC50: > 50000 nM
[2]
  percent free in plasma compared with human plasma: consistently higher
[3]
  Foral: 57%
[4]
  genetic toxicity: no genetic toxicity
[5]
  dose at which maximal PD response was achieved: 5 mg
hERG channel current
  Hill coefficient: 1.3
[6]
  Foral: 7% and 7i %
Respiratory system
  effects on respiratory parameters (respiratory rate, tidal volume, minute volume): no Compound 292-related effects
[7]; 25 mg BID, C2D1
  mean predose steady state plasma concentration: 390 ng/mL
[7]; patients with hematologic malignancies, BID dosing
  dose dependence of plasma Cmax and AUC: dose-proportional increases; also recorded: dose-proportional PK; also recorded: linear PK profile; also recorded: increases proportionally with doses
[7]; steady state C2D1, 25 mg and 75 mg BID
  time of maximum plasma concentration post-dosing: about 1 hour
[8]; DDI portion, 200 mg ql2h ketoconazole
  increase of Cmax in the presence of ketoconazole: approximately 66%
[8]; following 14 days of Q12 h oral administration
  accumulation: less than 2 fold
[8]; healthy subjects, across the dose ranges evaluated
  dose dependence of exposure (Cmax and AUC): increased proportionally to dose; also recorded: dose-proportional pharmacokinetics
[8]; single dose 1 mg
  AUC(0-24): 149 (67) ng*hr/mL
[8]; single dose 2 mg
  AUC(0-24): 289 (43) ng*hr/mL
[8]; single dose 5 mg
  AUC(0-24): 733 (5) ng*hr/mL
[8]; single dose 10 mg
  AUC(0-24): 891 (14) ng*hr/mL
[8]; single dose 20 mg
  AUC(0-24): 2193 (16) ng*hr/mL
[8]; single dose 30 mg
  AUC(0-24): 3263 (38) ng*hr/mL
[9]; healthy subjects
  IgE: No increases in IgE
[9]; healthy subjects, serial ECGs
  QTcF at any assessment: ≤ 500 ms
[9]; healthy subjects, single doses up to 30 mg, multiple doses up to 10 mg daily for 14 days
  tolerability: well tolerated; also recorded: well-tolerated
[9]; [10]
  headache, subjects: 8%
  myalgia, subjects: 6%
  nasopharyngitis, subjects: 6%
HH
  cytotoxicity, sensitivity: more sensitive
MJ
  cytotoxicity, sensitivity: resistant
HuT78
  cytotoxicity, sensitivity: medium sensitivity
